Experiments:
[1] = system: slow muscle fibers in the gastrocnemius muscle; experiment: Muscle fiber type analysis (muscle colour, metachromatic staining, slow type MHC immunostaining); format: in vivo, mice
Excerpt: The slow muscle fiber has a lot of myoglobin, which is oxygen transfer protein, and thus appears redder than the fast muscle. When the skin of the fetus was removed and the muscle thereof was observed, it may be seen that administered mice group had redder muscle (FIGS. 7A and 7B). In order to confirm whether or not slow muscle fiber generation was increased due to the administration material (CMDD1111), hind legs thereof were resected and then frozen in OCT. Frozen muscle tissues were cut into […] sections by using a freezing cryotome, and mounted on slides, which was then subjected to metachromatic staining. The slow muscle fiber was stained darker blue than the fast muscle by the metachromatic staining. […] Muscle fibers may be discernable even by immunostaining using an isoform antibody of the myosin heavy chain (MHC). The present inventors conducted immunostaining using the slow type MHC in order to confirm whether or not slow muscle fibers were increased by the administration material (CMDD1111).

[2] = molecular target: T1, hPPARa (Homo sapiens, UniProt Q07869); experiment: Transfection assay in CV-1 cells, hPPARa; format: cell-based; conditions: luciferase reporter
T1 construct: expressed in transfected cells; host or cells: CV-1 cells
T1 sequence (Q07869 1-468): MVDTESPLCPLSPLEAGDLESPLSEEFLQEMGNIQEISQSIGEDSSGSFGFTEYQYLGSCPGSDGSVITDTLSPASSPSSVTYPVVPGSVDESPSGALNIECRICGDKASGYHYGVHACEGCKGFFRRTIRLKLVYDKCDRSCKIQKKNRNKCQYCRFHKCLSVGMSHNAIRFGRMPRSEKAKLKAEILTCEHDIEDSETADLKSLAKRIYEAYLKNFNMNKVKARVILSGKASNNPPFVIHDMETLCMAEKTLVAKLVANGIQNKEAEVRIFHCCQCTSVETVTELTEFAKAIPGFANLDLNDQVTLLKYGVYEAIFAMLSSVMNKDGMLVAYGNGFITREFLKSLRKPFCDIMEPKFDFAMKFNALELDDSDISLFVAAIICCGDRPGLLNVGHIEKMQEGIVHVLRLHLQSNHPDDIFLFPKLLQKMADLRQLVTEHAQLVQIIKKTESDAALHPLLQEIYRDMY
Protocol: This assay was conducted by using CV-1 cells. The cells were cultured on a 96-well plate with a DMEM medium containing 10% FBS, DBS (delipidated), and 1% penicillin/streptomycin in 37° C. of an incubator 5% of carbon dioxide. Test was conducted in four stages of cell inoculation, transfection, treatment with the developed material, and result confirmation. The CV-1 cells were inoculated on the 96-well plate at a cell density at 5,000 cells/well, and after 24 hours, transfection was performed. PPARs plasmid DNA, reporter DNA, and β-galactosidase DNA were mixed with a transfection reagent, and then used to treat the cells. The developed material was dissolved in dimethylsulfoxide (DMSO), and then was used to treat the cells by using media at various concentrations. After 24 hours of culturing in an incubator, the cells were lysed with a lysis buffer and luciferase activity and β-galactosidase activity were measured using a luminometer and a microplate reader. The measured luciferase value was calibrated with the β-galactosidase value, and this value was depicted on a graph and EC50 was determined.

[3] = system: C57BL/6 mice with obesity induced by 35% fat feedstuff; experiment: Obesity suppression effect in high-fat diet mice; format: in vivo; conditions: 10 mg/kg/day oral, 60-day high-fat diet (35% fat)
Protocol: Test using mice was conducted in order to confirm the in vivo effect of the material according to the present invention. 8-week old C57BL/6 mice were used, and feedstuff containing 35% fat was used to induce obesity. A. vehicle and Compounds 5 and […] were orally administered. over 60-day period of high-fat diet.

[4] = system: mice with high-fat-induced diabetes; experiment: Glucose tolerance test (GTT) in mice with high-fat-induced diabetes; format: in vivo; conditions: 10 mg/Kg/day over 70 days; glucose 1.5 g/kg
Protocol: The glucose tolerance test (GTT) was conducted in order to verify the diabetes improvement effect of the material according to the present invention. Glucose (1.5 g/kg) was abdominally administer to mice with high-fat-induced diabetes, which was orally administered with medicine over 70 days, and then the blood glucose level change was measured for 2 hours. […] In contrast, the mouse control group administered with the vehicle […] normal blood glucose level even after 120 minutes.

[5] = system: HDL in serum; experiment: High-density lipoprotein cholesterol (HDL) in serum; format: in vivo; conditions: mice fed 10% fat feedstuff over 6 weeks
Excerpt: High-density lipoprotein cholesterol (HDL) has been known to play an important role in treating lipid metabolic disorders such as arteriosclerosis and hyperlipidemia while lowering the cholesterol level of an epidermal cell and mitigating an inflammatory reaction. Serum was separated from the mice fed over a 6-week period of feedstuff containing 10% fat in order to confirm the high-density cholesterol increase effect of Compounds 5 and 9, which were the developed materials of the present invention.

[6] = system: ApoE−/− mice; experiment: Arteriosclerosis prevention and treatment, en face analysis of arteries; format: in vivo; conditions: 14 weeks feedstuff, dosed over the last 4 weeks
Protocol: The in vivo test using ApoE−/− mice was conducted in order to verify the arteriosclerosis prevention and treatment effect of Compounds 5 and 9, the developed materials of the present invention. ApoE−/− mice, as an arteriosclerosis disease model, were fed with […] feedstuff (21% high fat and 1.25% high cholesterol feedstuff) over 14 weeks, to thereby induce arteriosclerosis, and then Compounds 5 and 9 were administered to the mice over the last 4 weeks. The medicine treatment manner was adopted. Arteries of the mice were resected, and then analyzed by the en face method. As the result, it was confirmed that Compounds 5 and 9 had 23% and 18% decreases in occurrence of arteriosclerosis, respectively.

[7] = system: 10-week old C57BL/6 mice; experiment: Treadmill endurance test of adult mice exercised while administered; format: in vivo; conditions: 10 mg/kg/day oral with exercise over 30 days
Protocol: In addition, it was verified that the developed material was effective in enhancing muscle endurance and improving muscular function. 10-week old C57BL/6 mice were exercised while being orally administered with the developed material at a concentration of 10 mg/kg/day. The mice were exercised using a treadmill for 30 minutes once each day over 30 days. The mice were exercised under exercise conditions of 2 meter/min for 5 minutes, 5 meters/min for 5 minutes, 8 meters/min for 5 minutes, and 20 meters/min for 5 minutes, respectively. By the end of the test, muscle endurance enhancement and muscular function improvement effects were tested by using a treadmill.

Cc1cc(SC(Cc2ccccc2)c2sc(-c3ccc(C(F)(F)F)cc3)nc2C)ccc1OCC(=O)O (stereo not shown) [CMDD1111]
muscle colour after skin removal ([1]; fetal reprogramming, maternal 10 mg/kg): redder muscle | muscle fibers responsive to slow type MHC, immunostaining ([1]; gastrocnemius muscle): increased | slow (dark blue) muscle fibers, metachromatic staining ([1]; gastrocnemius muscle): increasingly generated

Cc1cc(SC(Cc2ccc(-c3ccc(F)cc3)cc2)c2sc(-c3ccc(C(F)(F)F)cc3)nc2C)ccc1OCC(=O)O (stereo not shown) [Compound 9]
EC50 hPPARa [2]: ia | obesity suppression effect versus vehicle control [3]: 33% | blood glucose level change between 20 and 40 minutes versus control [4]: rapid decrease | complete glucose clearance after [4]: 100 min | HDL increase in serum [5]: 62% | decrease in occurrence of arteriosclerosis [6]: 18% | increase in the running distance versus control [7]: 1.5 fold | increase in the running time versus control [7]: 1.5 fold

Cc1cc(SC(Cc2ccc(-c3ccccc3)cc2)c2sc(-c3ccc(C(F)(F)F)cc3)nc2C)ccc1OCC(=O)O (stereo not shown) [Compound 5]
EC50 hPPARa [2]: ia | obesity suppression effect versus vehicle control [3]: 35% | blood glucose level change between 20 and 40 minutes versus control [4]: rapid decrease | complete glucose clearance after [4]: 100 min | HDL increase in serum [5]: 68% | decrease in occurrence of arteriosclerosis [6]: 23% | increase in the running distance versus control [7]: 1.8 fold | increase in the running time versus control [7]: 1.7 fold

From patent US20130197043A1, “USE OF THE FETAL REPROGRAMMING OF A PPAR AGONIST” (SNU R&DB FOUNDATION, priority 2010, published 2013)
